From ChEMBL document CHEMBL2086293, “Diaminopyridine-based potent and selective mps1 kinase inhibitors binding to an unusual flipped-Peptide conformation” (ACS Med Chem Lett, 2012)
pIC50: −log10 of the molar value.

Columns and labels:
[1] = target: Mitogen-activated protein kinase 8 (Homo sapiens, UniProt P45983); assay: Inhibition of JNK1-mediated ATF2 phosphorylation after 1 hr by ELISA
A549 [2] = assay: Antiproliferative activity against human A549 cells after 72 hrs by WST8 assay; assay type: functional, cell-based; conditions: A549, 72 h
[3] = AUC in mouse at 25 mg/kg, po; assay type: ADME, organism-based; design: dose 25 mg/kg, route oral; conditions: plasma
A549 [4] = assay: Antitumor activity against human A549 cells xenografted in BALB/cA Jcl-nu/nu mouse assessed as tumor growth inhibition at 100 mg/kg, po administered QD for 19 days relative to vehicle-treated control; conditions: 456 h, read-out: TGI
Mus musculus = assay: Toxicity in BALB/cA Jcl-nu/nu mouse xenografted with human A549 cells assessed as body weight loss at 100 mg/kg, po administered QD for 19 days; assay type: organism-based; design: dose 100 mg/kg, route oral; conditions: in vivo, 456 h
[5] = target: Receptor-type tyrosine-protein kinase FLT3 (Homo sapiens) (UniProt P36888); assay: Inhibition of FLT3 at 1 uM
[6] = Tmax in mouse at 25 mg/kg, po; assay type: ADME, organism-based; design: dose 25 mg/kg, route oral; conditions: in vivo
A549 [7] = assay: Antitumor activity against human A549 cells xenografted in po dosed BALB/cA Jcl-nu/nu mouse assessed as tumor growth inhibition administered QD for 19 days; assay type: functional, organism-based
[8] = tested on: T1, Receptor-type tyrosine-protein kinase FLT3 (Homo sapiens), P36888 [D835Y]; assay: Inhibition of FLT3 D835Y mutant at 1 uM
T1 sequence (whole entry): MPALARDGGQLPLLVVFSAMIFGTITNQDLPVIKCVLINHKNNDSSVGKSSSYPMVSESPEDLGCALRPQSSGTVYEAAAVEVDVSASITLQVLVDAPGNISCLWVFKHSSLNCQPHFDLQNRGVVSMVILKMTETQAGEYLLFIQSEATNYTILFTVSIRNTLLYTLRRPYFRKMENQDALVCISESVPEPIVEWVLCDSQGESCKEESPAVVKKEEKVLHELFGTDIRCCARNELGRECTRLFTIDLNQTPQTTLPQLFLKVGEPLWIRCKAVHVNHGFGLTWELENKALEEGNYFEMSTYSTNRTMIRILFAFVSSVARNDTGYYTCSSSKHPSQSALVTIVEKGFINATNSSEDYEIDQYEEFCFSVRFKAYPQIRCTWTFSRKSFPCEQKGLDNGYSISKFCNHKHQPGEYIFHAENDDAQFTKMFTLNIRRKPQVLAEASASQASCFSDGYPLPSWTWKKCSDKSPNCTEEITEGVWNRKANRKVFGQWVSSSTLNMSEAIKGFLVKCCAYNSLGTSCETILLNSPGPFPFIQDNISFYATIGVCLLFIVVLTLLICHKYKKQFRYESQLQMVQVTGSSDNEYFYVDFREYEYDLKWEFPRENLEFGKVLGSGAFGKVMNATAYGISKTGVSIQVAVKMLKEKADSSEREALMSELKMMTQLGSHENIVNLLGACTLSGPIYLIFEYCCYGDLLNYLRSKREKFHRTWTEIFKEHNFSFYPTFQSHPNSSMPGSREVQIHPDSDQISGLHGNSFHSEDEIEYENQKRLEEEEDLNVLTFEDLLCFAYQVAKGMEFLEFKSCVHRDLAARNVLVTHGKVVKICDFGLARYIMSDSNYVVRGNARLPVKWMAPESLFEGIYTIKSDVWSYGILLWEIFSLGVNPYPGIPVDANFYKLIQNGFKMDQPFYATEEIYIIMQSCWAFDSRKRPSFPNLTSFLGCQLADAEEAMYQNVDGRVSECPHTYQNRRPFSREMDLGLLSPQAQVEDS

[9] = Cmax in mouse at 25 mg/kg, po; assay type: ADME, organism-based; design: dose 25 mg/kg, route oral; conditions: in vivo

Chain of Mitogen-activated protein kinase 8 (P45983 whole entry): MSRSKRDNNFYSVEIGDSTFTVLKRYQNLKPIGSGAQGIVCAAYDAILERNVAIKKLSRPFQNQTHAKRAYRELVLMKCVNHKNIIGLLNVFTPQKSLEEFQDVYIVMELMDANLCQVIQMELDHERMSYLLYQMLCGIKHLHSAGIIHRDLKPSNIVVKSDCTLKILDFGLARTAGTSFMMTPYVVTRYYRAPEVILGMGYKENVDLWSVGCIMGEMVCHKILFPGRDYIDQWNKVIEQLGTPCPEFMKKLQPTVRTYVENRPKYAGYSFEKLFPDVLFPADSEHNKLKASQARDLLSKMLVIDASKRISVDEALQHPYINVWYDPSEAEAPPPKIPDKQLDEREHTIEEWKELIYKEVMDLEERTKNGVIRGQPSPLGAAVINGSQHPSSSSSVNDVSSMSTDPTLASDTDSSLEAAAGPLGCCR

Compound | pIC50 [1] | pIC50 (A549 [2]) | other results
CCOc1nc(NC(=O)Cc2ccccc2)cc(N)c1C#N | 6.59 | – | –
CCOc1nc(Nc2ccccc2)cc(N)c1C#N | 5.99 | – | –
CCOc1nc(C(=O)NCc2ccccc2)cc(N)c1C#N | 6.46 | – | –
CCOc1nc(Nc2ccc(C(N)=O)cc2)cc(N)c1C#N | 6.72 | 5.02 | –
CC(C)(C)Nc1nc(Nc2ccc(C(N)=O)cc2)cc(N)c1C#N | 6.64 | 6.08 | AUC [3]: 6600 ng·h/mL; inhibition in vivo at 100 mg/kg (A549 [4]): 47%; Activity (Mus musculus): Non-toxic; inhibition [5]: 50%; Tmax [6]: 15 min; TGI (A549 [7]): Dose-dependent effect; inhibition [8]: 86%; Cmax [9]: 3540 ng/mL
CCOc1nc(NCCc2ccccc2)cc(N)c1C#N | < 4.00 | – | –
